# Assays:
# [1] = system: H929 multiple myeloma cells; test: PD-L1 expression by flow cytometry in H929 cells; format: cell-based; settings: Compound A 1 μM and 2 μM, 48 hours, flow cytometry (FIG. 1)
# Procedure: After bone marrow aspiration, fresh bone marrow mononuclear cells (MNC) were obtained by ammonium chloride based-lyses of red cells followed by washing in phosphate-buffered saline (PBS). For ADCC assays, cells were immediately incubated with anti-PD-L1 antibody (BMS-936559, also referred to herein as “MDX-1105” 1 μg/mL) in the presence of Compound A or Compound B in complete medium in 96-well plate. The cells were incubated for 72 h at 37° C. in a 5% CO2 environment. The viability of primary MM cells in BM MNC was determined by near infrared (n-IR) viability dyes. The surviving CD138+ MM cells were enumerated in the presence of Flow-Count Fluorospheres (Beckman Coulter, CA, USA), to determine absolute numbers of viable MM cells. Phenotypic analyses of MNC were performed using a single 5-color combination of monoclonal antibodies containing BV421/PD-L1(CD274)-BV711 (BD Biosciences, San Jose, Calif., USA). PD-L1 on plasma cells was determined using a commercial assay (BD Biosciences, San Jose, Calif., USA). After incubation, cells were washed twice in PBS containing 2% BSA, and then re-suspended in PBS for analysis on a Fortessa cytometer (Becton Dickinson, Mountain View, Calif.). MM cell lines were also applied to this method in some experiments. […]
# U266 cells [2] = test: PD-L1 expression in U266 cells cultured in stromal cell supernatant; format: cell-based; settings: Compound B 1 μM, 48 hours, FCM (FIG. 3)
# Procedure: Mononuclear cells separated by Ficoll-Hypaque density sedimentation from bone marrow aspirates were cultured in 15% FBS-RPMI1640 for 5-6 weeks to establish long-term bone marrow stromal cells. Culture supernatant from BMSCs was used for stimulation of MM cell lines.
# (§1) After bone marrow aspiration, fresh bone marrow mononuclear cells (MNC) were obtained by ammonium chloride based-lyses of red cells followed by washing in phosphate-buffered saline (PBS). For ADCC assays, cells were immediately incubated with anti-PD-L1 antibody (BMS-936559, also referred to herein as “MDX-1105” 1 μg/mL) in the presence of Compound A or Compound B in complete medium in 96-well plate. The cells were incubated for 72 h at 37° C. in a 5% CO2 environment. The viability of primary MM cells in BM MNC was determined by near infrared (n-IR) viability dyes. The surviving CD138+ MM cells were enumerated in the presence of Flow-Count Fluorospheres (Beckman Coulter, CA, USA), to determine absolute numbers of viable MM cells. […] PD-L1 on plasma cells was determined using a commercial assay (BD Biosciences, San Jose, Calif., USA). […]
# To determine the effect stromal cell priming has on PD-L1 expression in U266 cells treated with Compound B, U266 cells were cultured in stromal cell supernatant (sup) in the presence or absence of Compound B (1 μM) for 48 hours. PD-L1 expression was assessed by FCM. […]
# [3] = system: Mononuclear cells from MM patients' bone marrow aspirates; test: anti-PD-L1 antibody induced cytotoxicity, autologous setting, ex vivo; format: cell-based, human; settings: anti-PD-L1 Ab 0.5 μg/ml, Compound B 0.5 μM, 72 h (FIG. 8 and FIG. 9)
# Procedure: After bone marrow aspiration, fresh bone marrow mononuclear cells (MNC) were obtained by ammonium chloride based-lyses of red cells followed by washing in phosphate-buffered saline (PBS). […] The cells were incubated for 72 h at 37° C. in a 5% CO2 environment. The viability of primary MM cells in BM MNC was determined by near infrared (n-IR) viability dyes. The surviving CD138+ MM cells were enumerated in the presence of Flow-Count Fluorospheres (Beckman Coulter, CA, USA), to determine absolute numbers of viable MM cells. Phenotypic analyses of MNC were performed using a single 5-color combination of monoclonal antibodies containing BV421/PD-L1(CD274)-BV711 (BD Biosciences, San Jose, Calif., USA). PD-L1 on plasma cells was determined using a commercial assay (BD Biosciences, San Jose, Calif., USA). After incubation, cells were washed twice in PBS containing 2% BSA, and then re-suspended in PBS for analysis on a Fortessa cytometer (Becton Dickinson, Mountain View, Calif.). MM cell lines were also applied to this method in some experiments.
# H929 cells were stained with CFSE and cultured with PBMCs in the presence or absence of pomalidomide (0.1 μM), Compound B (0.25, 0.5, 1 μM) for 72 h. The cells were then incubated with Ab (0.5 μg/ml PD-L1) for 3 h. Cytotoxicity was assessed by FCM (FIG. 7). […]
# [4] = system: MM.1S, H929, KMS12-PE, OPM1 and U266 multiple myeloma cells; test: PD-L1 expression in a panel of multiple myeloma cell lines; format: cell-based; settings: 2 μM, 48 hours (FIG. 2)
# Procedure: After bone marrow aspiration, fresh bone marrow mononuclear cells (MNC) were obtained by ammonium chloride based-lyses of red cells followed by washing in phosphate-buffered saline (PBS). For ADCC assays, cells were immediately incubated with anti-PD-L1 antibody (BMS-936559, also referred to herein as “MDX-1105” 1 μg/mL) in the presence of Compound A or Compound B in complete medium in 96-well plate. […] The viability of primary MM cells in BM MNC was determined by near infrared (n-IR) viability dyes. The surviving CD138+ MM cells were enumerated in the presence of Flow-Count Fluorospheres (Beckman Coulter, CA, USA), to determine absolute numbers of viable MM cells. Phenotypic analyses of MNC were performed using a single 5-color combination of monoclonal antibodies containing BV421/PD-L1(CD274)-BV711 (BD Biosciences, San Jose, Calif., USA). PD-L1 on plasma cells was determined using a commercial assay (BD Biosciences, San Jose, Calif., USA). After incubation, cells were washed twice in PBS containing 2% BSA, and then re-suspended in PBS for analysis on a Fortessa cytometer (Becton Dickinson, Mountain View, Calif.). MM cell lines were also applied to this method in some experiments.
# H929 cells = test: anti-PD-L1 antibody-dependent cell-mediated cytotoxicity in H929 cells; format: cell-based; settings: H929 cells with PBMCs, Compound B alone 0.25, 0.5, 1 μM, 72 h, then anti-PD-L1 antibody 0.5 μg/ml 3 h, FCM (FIG. 7)
# Procedure: After bone marrow aspiration, fresh bone marrow mononuclear cells (MNC) were obtained by ammonium chloride based-lyses of red cells followed by washing in phosphate-buffered saline (PBS). For ADCC assays, cells were immediately incubated with anti-PD-L1 antibody (BMS-936559, also referred to herein as “MDX-1105” 1 μg/mL) in the presence of Compound A or Compound B in complete medium in 96-well plate. The cells were incubated for 72 h at 37° C. in a 5% CO2 environment. The viability of primary MM cells in BM MNC was determined by near infrared (n-IR) viability dyes. […] PD-L1 on plasma cells was determined using a commercial assay (BD Biosciences, San Jose, Calif., USA). […]
# To assess the effect of Compound B in combination with pomalidomide on ADCC using anti-PD-L1 antibody-dependent cell-mediated cytotoxicity in H929 cells, H929 cells were stained with carboxyfluorescein succinimidyl ester (CFSE) and cultured with PBMCs in the presence or absence of pomalidomide (0.1 μM), Compound B (0.25, 0.5, 1 μM) for 72 hours. […] Cytotoxicity was assessed by FCM. […]
# H929 cells were stained with CFSE and cultured with PBMCs in the presence or absence of pomalidomide (0.1 μM), Compound B (0.25, 0.5, 1 μM) for 72 h. […] Cytotoxicity was assessed by FCM (FIG. 7). […]
# U266 cells [5] = test: anti-PD-L1 antibody-dependent cell-mediated cytotoxicity in U266 cells; format: cell-based; settings: Compound B 1 μM plus stromal cell supernatant 48 hours, then anti-PD-L1 antibody 1 μg/ml and PBMC (E/T=15/1 and 30/1) 5 hours, FCM (FIG. 4)
# Procedure: Multiple myeloma cells were incubated with Calcein-AM (Invitrogen, 2 μg/ml/1 million cells) for 30 min at 37° C. After washing, the cells were used for target cells. Mononuclear cells were obtained from healthy volunteer peripheral blood by Ficoll-Paque density centrifugation and used for effector cells. […] Percent specific lysis was calculated as follows, % specific lysis=[experiment fluorescence−spontaneous fluorescence (no effector)]/[complete lysis (100% killing by detergent)−spontaneous fluorescence (no effector)]×100.
# as §1
# RPMI8226 cells = test: anti-PD-L1 antibody-dependent cell-mediated cytotoxicity in RPMI8226 cells; format: cell-based; settings: RPMI8226 cells with PBMCs (E/T=15/1), pomalidomide 0.1 μM 72 hours, then anti-PD-L1 antibody 0.5 μg/ml 3 hours, FCM (FIG. 5)
# Procedure: After bone marrow aspiration, fresh bone marrow mononuclear cells (MNC) were obtained by ammonium chloride based-lyses of red cells followed by washing in phosphate-buffered saline (PBS). For ADCC assays, cells were immediately incubated with anti-PD-L1 antibody (BMS-936559, also referred to herein as “MDX-1105” 1 μg/mL) in the presence of Compound A or Compound B in complete medium in 96-well plate. The cells were incubated for 72 h at 37° C. in a 5% CO2 environment. The viability of primary MM cells in BM MNC was determined by near infrared (n-IR) viability dyes. The surviving CD138+ MM cells were enumerated in the presence of Flow-Count Fluorospheres (Beckman Coulter, CA, USA), to determine absolute numbers of viable MM cells. Phenotypic analyses of MNC were performed using a single 5-color combination of monoclonal antibodies containing BV421/PD-L1(CD274)-BV711 (BD Biosciences, San Jose, Calif., USA). PD-L1 on plasma cells was determined using a commercial assay (BD Biosciences, San Jose, Calif., USA). […]
# Similarly, RPMI8226 cells were cultured with PBMCs (E/T=15/1) in the presence or absence of pomalidomide (Pom, 0.1 μM) for 72 hours. After subsequent cultivation with anti-PD-L1 antibody (0.5 μg/ml) for 3 hours, percent specific killing was assessed by FCM. […]
compound,measurement,setting,value
"O=C(CCCCCCNC(=O)c1cnc(N(c2ccccc2)c2ccccc2)nc1)NO [Compound A, 2-(diphenylamino)-N-(7-(hydroxyamino)-7-oxoheptyl)pyrimidine-5-carboxamide]",PD-L1 expression,[1],increased
"O=C(CCCCCCNC(=O)c1cnc(N(c2ccccc2)c2ccccc2Cl)nc1)NO [Compound B, 2-((2-chlorophenyl)(phenyl)amino)-N-(7-(hydroxyamino)-7-oxoheptyl)pyrimidine-5-carboxamide]",PD-L1 expression,U266 cells [2],highest
same,anti-PD-L1 antibody induced-cytotoxicity,[3],enhanced
same,PD-L1 expression,[4],enhanced
same,anti-PD-L1 Ab-induced cytotoxicity,H929 cells,enhanced
same,percent specific lysis,U266 cells [5],greatest
"Nc1cccc2c1C(=O)N(C1CCC(=O)NC1=O)C2=O (stereo not shown) [Pomalidomide, pomalidomide]",percent specific killing (cytotoxicity),RPMI8226 cells,enhanced

# — patent publication US11497746B2, “Pharmaceutical combinations comprising a histone deacetylase inhibitor and a programmed death-ligand 1 (PD-L1) inhibitor and methods of use thereof” (Acetylon Pharmaceuticals, Inc., priority 2016, dated 2022)
